{"source": "patent US12391657B2", "about": "“Small molecules that bind and/or modulate differentforms of tau oligomers” (The Board of Regents of the University of Texas System, priority 2019, dated 2025)", "key": {"[1]": {"molecular_target": "T1, recombinant tau oligomers (TauO) (Homo sapiens, UniProt P10636)", "T1 construct": "made in house", "T1 sequence (P10636 1-441 isoform P10636-8)": "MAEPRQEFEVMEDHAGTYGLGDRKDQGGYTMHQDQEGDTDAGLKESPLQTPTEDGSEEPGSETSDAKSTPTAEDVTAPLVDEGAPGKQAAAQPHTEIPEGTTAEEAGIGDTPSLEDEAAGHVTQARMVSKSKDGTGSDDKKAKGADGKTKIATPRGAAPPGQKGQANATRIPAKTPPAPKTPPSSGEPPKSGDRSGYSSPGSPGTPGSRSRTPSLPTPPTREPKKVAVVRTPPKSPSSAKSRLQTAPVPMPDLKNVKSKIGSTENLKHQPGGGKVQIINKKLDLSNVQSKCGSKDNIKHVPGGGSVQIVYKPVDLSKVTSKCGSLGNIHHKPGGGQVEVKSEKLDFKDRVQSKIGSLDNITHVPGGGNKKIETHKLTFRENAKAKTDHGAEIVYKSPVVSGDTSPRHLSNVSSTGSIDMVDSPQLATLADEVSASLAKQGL", "assay": "Atomic force microscopy of recombinant tau oligomers after compound treatment", "details": "5 μM of curcumin derivatives", "procedure": "(§1) Tau oligomers were characterized by AFM as previously described (Lasagna-Reeves, (2010)0. Briefly, samples were prepared by adding 10 μl tau oligomers in the absence and presence of AC on freshly-cleaved mica and were allowed to adsorb to the surface. Mica were then washed three times with distilled water to remove unbound protein and impurities followed by air-drying. Samples were then imaged with Multimode 8 AFM machine (Veeco, CA) using a non-contact tapping method (ScanAsyst-Air).\n(§2) Compounds were dissolved in ETOH 75%/DMSO (5:1) at a final concentration of 5 mM and diluted in 1× PBS or ddH2O for incubation or toxicity assay (final concentration 5 μM). Tau oligomers in the presence of the small molecules and controls were incubated on an orbital shaker, without stirring, for 16 hours under oligomerization conditions as previously described (Lo Cascio and Kayed 2018).\nas §1, with “(Lasagna-Reeves, Castillo-Carranza et al. 2010).” for “(Lasagna-Reeves, (2010)0.”, “absence or” for “absence and”"}, "primary cortical neurons [2]": {"tested_on": "primary cortical neurons", "assay": "MTT viability of primary cortical neurons exposed to TauO pre-incubated with compound", "format": "cell-based, Htau mice", "details": "0.5 μM tau oligomers, 5 μM curcumin derivatives, 2 hours", "procedure": "as §2\n(§3) Human neuroblastoma SH-SY5Y cells were maintained in Dulbecco's modified Eagle's medium (DMEM) and grown to confluence in 96-well plates. […] Cells viability was corrected by the vehicle background. All measurements were performed in triplicate. The cytotoxic effect was determined using 3-(4,5-dimethylthiazol-2-yl)-2,5-diphenyltetrazolium bromide (MTT) assay for assessing cell viability following manufacturer's instructions. Optical density (OD) was measured at 490 nm with POLARstar OMEGA plate reader (BMG Labtechnologies). Cell viability was calculated as the percentage of the OD value of treated cells compared with untreated controls, according to the following equation: Viability=(OD SAMPLE/OD CONTROL)×100. Statistical analysis was based on one-way analysis of variance (ANOVA), performed using GraphPad Prism 6.01.\n(§4) Primary cortical neurons from transgenic mice expressing human full-length tau were prepared and maintained as described previously (Beaudoin, Lee et al. 2012). Briefly, cortical neurons were isolated from embryos at embryonic day 16-18 using Accutase solution (Sigma). Dissociated neurons were plated at a density of […] in 96-well plates containing high glucose Dulbecco's Modified Eagle Medium (DMEM, Corning) supplemented with 2% B27 (Gibco), 10,000 units/mL penicillin, 10,000 μg/mL streptomycin , and 25 μg/mL Amphotericin B (Gibco). After 2 hours, plating medium was removed from cells and replaced with Neurobasal medium (Gibco) plus 2% B27, […] (Hyclone), 10,000 units/mL, 10,000 μg/mL streptomycin, and 25 μg/mL Amphotericin B supplement. Cells were grown for 10-12 days in vitro before experiments and 50% of media changes were performed every 3 days. […] The MTT viability assay was performed as previously described (Cell Toxicity Assay—MTT)."}, "primary cortical neurons [3]": {"tested_on": "primary cortical neurons", "assay": "MTT viability of primary cortical neurons exposed to Aβ oligomers pre-incubated with compound", "format": "cell-based, Htau mice", "details": "0.5 μM Aβ oligomers, 5 μM curcumin derivatives", "procedure": "Aβ oligomers (AβO) were prepared as previously described (Lasagna-Reeves, Castillo-Carranza et al. 2010) by dissolving 0.3 mg of Aβ pellet in 200 μL of hexafluoroisopropanol (HFIP) and incubating for 10-20 min at room temperature. The resulting solution was added to 700 μL of ddH2O in a siliconized Eppendorf tube with holes placed on top of the cap to allow the slow evaporation of HFIP. The samples were then stirred at 500 rpm using a Teflon-coated micro stir bar for 48 hours at room temperature in the fume hood.\nas §2, with “Aβ” for “Tau”\nas §3, §4"}, "primary cortical neurons [4]": {"tested_on": "primary cortical neurons", "assay": "MTT viability of primary cortical neurons exposed to PSP BDTOs with and without compound", "format": "cell-based, Htau mice", "details": "0.5 μM BDTOs, CL3 final concentration 5 μM", "procedure": "as §3\nas §2, with “conditions.” for “conditions as previously described (Lo Cascio and Kayed 2018).”\n(§5) Primary cortical neurons from transgenic mice expressing human full-length tau were prepared and maintained as described previously (Beaudoin, Lee et al. 2012). […]"}, "primary cortical neurons [5]": {"tested_on": "primary cortical neurons", "assay": "MTT viability of primary cortical neurons exposed to AD BDTOs with and without compound", "format": "cell-based, Htau mice", "details": "0.5 μM BDTOs, CL3 final concentration 5 μM", "procedure": "as §3\nas §2, with “conditions.” for “conditions as previously described (Lo Cascio and Kayed 2018).”\nas §5"}, "PSP BDTOs": {"tested_on": "PSP BDTOs", "assay": "Atomic force microscopy of PSP BDTOs with and without compound", "details": "with CL3", "procedure": "as §1, with “(Lasagna-Reeves, Castillo-Carranza et al. 2010).” for “(Lasagna-Reeves, (2010)0.”, “absence or” for “absence and”\nas §2, with “conditions.” for “conditions as previously described (Lo Cascio and Kayed 2018).”\n(§6) Immunoprecipitated tau oligomers were characterized using various biochemical methods as previously described (Lasagna-Reeves 2012, Gerson, Castillo-Carranza et al. 2016). AFM was performed to visualize the morphologies of oligomeric assemblies of isolated proteins. Isolated oligomers (5 μL) were injected into an LC-6AD Shimadzu HPLC system fitted with a TSK-GEL G3000 SWXL (30 cm×7.8 mm) column, Supelco-808541 to determine the size of the isolated oligomers. PBS (pH 7.4) was used as the mobile phase with a flow rate of 0.5 mL/min. […]"}, "AD BDTOs": {"tested_on": "AD BDTOs", "assay": "Atomic force microscopy of AD BDTOs with and without compound", "details": "with CL3", "procedure": "as §1, with “(Lasagna-Reeves, Castillo-Carranza et al. 2010).” for “(Lasagna-Reeves, (2010)0.”, “absence or” for “absence and”\nas §2, with “conditions.” for “conditions as previously described (Lo Cascio and Kayed 2018).”\nas §6"}, "primary cortical neurons [6]": {"tested_on": "primary cortical neurons", "assay": "BDTOs with and without CL3 taken up by primary cortical neurons, Western blot of cytoplasmic fraction", "format": "cell-based", "details": "0.5 μM DLB, AD and PSP BDTOs, 5 μM CL3, 24 hrs", "procedure": "FIG. 15. Disease-relevant brain-derived tau oligomers with and without CL3 taken up by primary cortical neurons. Primary cortical neurons were exposed to 0.5 μM DLB, AD and PSP BDTOs in the presence and absence of 5 μM CL3 for 24 hrs. Tau levels are evaluated in the cytoplasmic fraction using the generic tau antibody, Total Tau. […] PSP show to more efficiently decrease monomeric tau in the cytoplasmic fraction as compared to DLB and AD. […] Data were compared by one-way analysis of variance (ANOVA) followed by Dunnett's multiple comparison test: Ctrl vs DLB, DLB+CL3, AD, AD+CL3, PSP, PSP+CL3: **p<0.01; ***p<0.001; ****p<0.0001. Bars and error bars represent the mean and standard deviation."}, "[7]": {"details": "cited from earlier work"}, "[8]": {"details": "in vivo; cited from earlier work"}}, "note": "Entries after “also recorded” stand apart in the source; their conditions may differ."}
{"smiles": "O=C(/C=C/c1ccc(F)cc1)C(=O)/C=C/c1ccc(F)cc1", "note": "[CL3]", "values": [{"measurement": "morphology and aggregation state of TauO by AFM", "setting": "[1]", "value": "converting TauO into much larger aggregates"}, {"measurement": "viability of neuronal culture exposed to TauO pre-incubated with compound", "setting": "primary cortical neurons [2]", "value": "significantly higher cells viability as compared to TauO alone"}, {"measurement": "viability of neuronal culture exposed to AβO pre-incubated with compound", "setting": "primary cortical neurons [3]", "value": "no changes in cells viability as compared to AβO alone"}, {"measurement": "PSP BDTOs-induced toxicity in primary neurons (cell viability)", "setting": "primary cortical neurons [4]", "value": "reduced PSP-derived tau oligomers toxicity; also recorded: able to rescue primary neurons from PSP BDTOs-induced toxicity; also recorded: modulates PSP BDTOs associated neurotoxicity"}, {"measurement": "AD BDTOs-induced toxicity in primary neurons (cell viability)", "setting": "primary cortical neurons [5]", "value": "not be able to modulate and neutralize AD BDTOs-induced toxicity; also recorded: no effect in preventing AD BDTOs-induced toxicity"}, {"measurement": "morphology and aggregation state of PSP BDTOs by AFM", "setting": "PSP BDTOs", "value": "formation of larger tau aggregates"}, {"measurement": "morphology and aggregation state of AD BDTOs by AFM", "setting": "AD BDTOs", "value": "no morphological changes were observed"}, {"measurement": "effect of BDTO pretreatment on tau levels in cytoplasmic fraction of primary neurons", "setting": "primary cortical neurons [6]", "value": "differently modulate their aggregation states"}]}
{"smiles": "O=C(/C=C/c1ccc(Cl)cc1)COC(=O)/C=C/c1ccc(Cl)cc1", "note": "[Cal7]", "values": [{"measurement": "morphology and aggregation state of TauO by AFM", "setting": "[1]", "value": "converting TauO into much larger aggregates"}, {"measurement": "viability of neuronal culture exposed to TauO pre-incubated with compound", "setting": "primary cortical neurons [2]", "value": "significantly higher cells viability as compared to TauO alone"}, {"measurement": "viability of neuronal culture exposed to AβO pre-incubated with compound", "setting": "primary cortical neurons [3]", "value": "no changes in cells viability as compared to AβO alone"}]}
{"smiles": "COc1cc(/C=C/C(=O)OCC(=O)/C=C/c2ccc(OC)c(OC)c2)ccc1F", "note": "[Cal9]", "values": [{"measurement": "morphology and aggregation state of TauO by AFM", "setting": "[1]", "value": "converting TauO into much larger aggregates"}, {"measurement": "viability of neuronal culture exposed to TauO pre-incubated with compound", "setting": "primary cortical neurons [2]", "value": "significantly higher cells viability as compared to TauO alone"}, {"measurement": "viability of neuronal culture exposed to AβO pre-incubated with compound", "setting": "primary cortical neurons [3]", "value": "no changes in cells viability as compared to AβO alone"}]}
{"smiles": "COc1cc(/C=C/C(=O)COC(=O)/C=C/c2ccc(O)c(OC)c2)ccc1O", "note": "[Calebin-A]", "values": [{"measurement": "solubility in aqueous media", "setting": "[7]", "value": "poor solubity in water"}, {"measurement": "bioavailability", "setting": "[8]", "value": "low bioavailabity"}]}
{"smiles": "CC(=O)/C=C/c1ccc(C)cc1", "note": "[HemiC9]", "values": [{"measurement": "morphology and aggregation state of TauO by AFM", "setting": "[1]", "value": "converting TauO into much larger aggregates"}, {"measurement": "viability of neuronal culture exposed to TauO pre-incubated with compound", "setting": "primary cortical neurons [2]", "value": "significantly higher cells viability as compared to TauO alone"}, {"measurement": "viability of neuronal culture exposed to AβO pre-incubated with compound", "setting": "primary cortical neurons [3]", "value": "no changes in cells viability as compared to AβO alone"}]}
